# Assay results reported in ChEMBL document CHEMBL1201862, “PubChem BioAssay data set” (2004).
#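 The compound was tested at five concentrations on cells cultured in 96-well plates, with a 48-hour exposure period. GI50 = concentration required for 50% inhibition of growth.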 Active and inactive are the calls of the source. No stated cut-off is given here; in the data, active = GI50 up to about 1.1 µM and inactive = higher.
# How the values were obtained:
# Assay in all cases: DTP human tumour cell line panel, 48 h
# BT-549 = system: BT-549
# CCRF-CEM = system: CCRF-CEM
# HCT-116 = system: HCT-116
# HL-60 = system: HL-60
# HOP-62 = system: HOP-62
# IGROV-1 = system: IGROV-1
# K562 = system: K562
# LOX IMVI = system: LOX IMVI
# MCF7 = system: MCF7
# Malme-3M = system: Malme-3M
# OVCAR-8 = system: OVCAR-8
# RXF 393 = system: RXF 393
# SF-268 = system: SF-268
# SF-539 = system: SF-539
# SK-MEL-28 = system: SK-MEL-28
# SK-MEL-5 = system: SK-MEL-5
# SR = system: SR
# UACC-257 = system: UACC-257
# UO-31 = system: UO-31
# T47D = system: T47D
SMILES,GI50 (BT-549),GI50 (CCRF-CEM),GI50 (HCT-116),GI50 (HL-60),GI50 (HOP-62),GI50 (IGROV-1),GI50 (K562),GI50 (LOX IMVI),GI50 (MCF7),GI50 (Malme-3M),GI50 (OVCAR-8),GI50 (RXF 393),GI50 (SF-268),GI50 (SF-539),GI50 (SK-MEL-28),GI50 (SK-MEL-5),GI50 (SR),GI50 (UACC-257),GI50 (UO-31),GI50 (T47D)
C=C1C(C)C2C(Cc3ccccc3)NC(=O)C23C(OC(C)=O)C=CC(C)(O)C(=O)C(C)C/C=C/C3C1O (stereo unspecified),0.407 µM (active),4.24 µM (inactive),3.54 µM (inactive),4.57 µM (inactive),0.0678 µM (active),0.902 µM (active),33.1 µM (inactive),0.101 µM (active),6.76 µM (inactive),30.5 µM (inactive),79.8 µM (inactive),0.0865 µM (active),1.45 µM (inactive),0.117 µM (active),2.47 µM (inactive),0.76 µM (active),3.3 µM (inactive),6.59 µM (inactive),0.296 µM (active),–
Cc1cnc(Cl)nc1C(C#N)c1nc2ccccc2s1 (stereo unspecified),12.4 µM (inactive),–,10.5 µM (inactive),–,22.2 µM (inactive),21.6 µM (inactive),–,18.8 µM (inactive),–,9.31 µM (inactive),25.7 µM (inactive),17.2 µM (inactive),15.7 µM (inactive),25.8 µM (inactive),69 µM (inactive),5.57 µM (inactive),–,31.7 µM (inactive),31.7 µM (inactive),34.1 µM (inactive)
O=C(NC1CCN(Cc2ccccc2)CC1)c1cccc(I)c1,42.5 µM (inactive),33.3 µM (inactive),15.3 µM (inactive),34.4 µM (inactive),15.8 µM (inactive),39 µM (inactive),22.6 µM (inactive),19.6 µM (inactive),–,17.1 µM (inactive),39.2 µM (inactive),51.8 µM (inactive),50.9 µM (inactive),22.8 µM (inactive),18 µM (inactive),16.9 µM (inactive),18.8 µM (inactive),16.4 µM (inactive),17 µM (inactive),24.1 µM (inactive)
Nc1c(C(=O)O)c2ccc([N+](=O)[O-])cc2c(=O)n1-c1nc2ccccc2s1,> 100 µM (inactive),> 100 µM (inactive),> 100 µM (inactive),–,> 100 µM (inactive),> 100 µM (inactive),> 100 µM (inactive),> 100 µM (inactive),> 100 µM (inactive),> 100 µM (inactive),> 100 µM (inactive),> 100 µM (inactive),> 100 µM (inactive),–,> 100 µM (inactive),> 100 µM (inactive),> 100 µM (inactive),–,> 100 µM (inactive),> 100 µM (inactive)
Oc1nc(S)nc2c1CN(CCCN1CCOCC1)CN2,75.2 µM (inactive),–,34.4 µM (inactive),–,30.9 µM (inactive),40.6 µM (inactive),67.9 µM (inactive),24.7 µM (inactive),34.7 µM (inactive),19.7 µM (inactive),31 µM (inactive),–,23.1 µM (inactive),25.5 µM (inactive),> 100 µM (inactive),31 µM (inactive),28.4 µM (inactive),40.2 µM (inactive),36.8 µM (inactive),35.4 µM (inactive)
O=[N+]([O-])/C(C(Cl)=C(Cl)Cl)=C(\Nc1cccc2ccccc12)Sc1ccccc1,18.4 µM (inactive),8.55 µM (inactive),15 µM (inactive),–,23.9 µM (inactive),–,57.3 µM (inactive),–,12.6 µM (inactive),17.5 µM (inactive),15.3 µM (inactive),12.9 µM (inactive),12.9 µM (inactive),19.3 µM (inactive),18.7 µM (inactive),–,–,14.8 µM (inactive),16 µM (inactive),19.5 µM (inactive)
O=C1Cc2c([nH]c3ccc(Br)cc23)-c2cc(O)c(O)cc2N1,> 100 µM (inactive),–,–,–,> 100 µM (inactive),–,> 100 µM (inactive),> 100 µM (inactive),> 100 µM (inactive),–,> 100 µM (inactive),> 100 µM (inactive),> 100 µM (inactive),–,> 100 µM (inactive),–,–,> 100 µM (inactive),> 100 µM (inactive),> 100 µM (inactive)
C=C1c2nc3ccccc3n2C=C(c2ccccc2)N1c1ccc(C)cc1,49.9 µM (inactive),55.6 µM (inactive),36.9 µM (inactive),–,–,> 100 µM (inactive),31.5 µM (inactive),33.6 µM (inactive),29.5 µM (inactive),> 100 µM (inactive),48.5 µM (inactive),59.6 µM (inactive),–,63.8 µM (inactive),–,25.7 µM (inactive),10.3 µM (inactive),80.4 µM (inactive),36.1 µM (inactive),–
CN1CCN(c2ccncc2S(=O)(=O)N2CCN(C)CC2)CC1,> 100 µM (inactive),–,> 100 µM (inactive),–,> 100 µM (inactive),> 100 µM (inactive),> 100 µM (inactive),> 100 µM (inactive),> 100 µM (inactive),> 100 µM (inactive),> 100 µM (inactive),> 100 µM (inactive),> 100 µM (inactive),> 100 µM (inactive),> 100 µM (inactive),> 100 µM (inactive),–,> 100 µM (inactive),> 100 µM (inactive),> 100 µM (inactive)
O=[N+]([O-])c1ccc(/C=N/Nc2nc3ccccc3[nH]2)o1,15 µM (inactive),8.39 µM (inactive),14.8 µM (inactive),1.31 µM (inactive),15.8 µM (inactive),12.6 µM (inactive),13.1 µM (inactive),13.9 µM (inactive),–,13.8 µM (inactive),16.7 µM (inactive),14.6 µM (inactive),24.4 µM (inactive),4.09 µM (inactive),8.91 µM (inactive),4.14 µM (inactive),7.71 µM (inactive),21.2 µM (inactive),18.7 µM (inactive),13.6 µM (inactive)
COC(=O)c1ccc2c(c1)sc1nc(-c3ccc(OC)cc3)cn12,43.7 µM (inactive),39.9 µM (inactive),> 100 µM (inactive),25.1 µM (inactive),> 100 µM (inactive),48.2 µM (inactive),38.2 µM (inactive),> 100 µM (inactive),66.2 µM (inactive),> 100 µM (inactive),91.4 µM (inactive),69.8 µM (inactive),83.8 µM (inactive),59.8 µM (inactive),> 100 µM (inactive),21.1 µM (inactive),–,49 µM (inactive),> 100 µM (inactive),35.2 µM (inactive)
CCOc1ccc(NCc2cc(OC)c(OC)c(OC)c2)cc1,0.12 µM (active),–,0.427 µM (active),0.257 µM (active),0.753 µM (active),1.49 µM (inactive),0.215 µM (active),0.643 µM (active),0.435 µM (active),–,–,–,2.29 µM (inactive),0.486 µM (active),2.57 µM (inactive),0.506 µM (active),0.256 µM (active),20.9 µM (inactive),4.8 µM (inactive),–
O=C1NC(=S)NC(=O)C1C(c1ccc([N+](=O)[O-])cc1)C1C(=O)NC(=S)NC1=O.c1ccncc1,> 100 µM (inactive),> 100 µM (inactive),> 100 µM (inactive),> 100 µM (inactive),> 100 µM (inactive),> 100 µM (inactive),> 100 µM (inactive),> 100 µM (inactive),> 100 µM (inactive),–,> 100 µM (inactive),> 100 µM (inactive),–,–,> 100 µM (inactive),> 100 µM (inactive),–,> 100 µM (inactive),> 100 µM (inactive),> 100 µM (inactive)
c1cc(-c2ccc(-c3ccc(-c4ccc(-c5cccc6nsnc56)[nH]4)c4nsnc34)[nH]2)c2nsnc2c1,> 100 µM (inactive),> 100 µM (inactive),> 100 µM (inactive),1.53 µM (inactive),> 100 µM (inactive),> 100 µM (inactive),> 100 µM (inactive),> 100 µM (inactive),> 100 µM (inactive),> 100 µM (inactive),> 100 µM (inactive),–,> 100 µM (inactive),–,> 100 µM (inactive),> 100 µM (inactive),–,–,> 100 µM (inactive),> 100 µM (inactive)
O=c1[nH]nc(-c2ccccc2)n1-n1cccc1,> 100 µM (inactive),50.8 µM (inactive),> 100 µM (inactive),–,> 100 µM (inactive),> 100 µM (inactive),> 100 µM (inactive),> 100 µM (inactive),> 100 µM (inactive),> 100 µM (inactive),> 100 µM (inactive),> 100 µM (inactive),> 100 µM (inactive),–,> 100 µM (inactive),> 100 µM (inactive),9.29 µM (inactive),> 100 µM (inactive),> 100 µM (inactive),> 100 µM (inactive)
Nc1nonc1-c1noc(-c2nonc2N)[n+]1[O-],64.1 µM (inactive),0.366 µM (active),> 100 µM (inactive),–,> 100 µM (inactive),> 100 µM (inactive),41 µM (inactive),63.2 µM (inactive),33.3 µM (inactive),20.4 µM (inactive),–,24.9 µM (inactive),> 100 µM (inactive),–,> 100 µM (inactive),32.1 µM (inactive),93.8 µM (inactive),> 100 µM (inactive),42.9 µM (inactive),> 10 µM (inactive)
